Consider four compounds from publication PMC4890880 (ACS infectious diseases, 2016).

In test [1] the test system is Plasmodium berghei (Pb-Luc) exoerythrocytic-stage parasites. The note with it: for normalised signal at concentration 10 (first series): concentration 10, first series of dose columns; for normalised signal at concentration 10 (second series): concentration 10, second series of dose columns; for IC50: read-out: PbLuc_IC50.
Test [2] concerns HepG2-A16-CD81EGFP cells. The note with it: for IC50: read-out: Tox_IC50, HepG2 cytotoxicity.
Where [3] appears, read: sheet "2nd round", Broad compounds, dose response top concentration 10.
The mark [4] stands for this setting: 2nd round, maximal inhibition in dose series.

SMILES strings stand for the structures. Like-named read-outs stand apart in the source and are kept apart here. A value given as a limit tells only on which side of the number the result lay.

Turning to `COc1ccccc1S(=O)(=O)N(C)C[C@@H]1OCc2ccccc2-c2ccccc2C(=O)N([C@H](C)CO)C[C@@H]1C` [BRD-K88384060-001-01-3], in test [1], the “normalised signal at concentration 0.000508053 (first series)” value was found to be 0.762, the “normalised signal at concentration 0.000508053 (second series)” value was 0.8443, the “normalised signal at concentration 0.00152416 (first series)” value was determined as 0.9256 and the “normalised signal at concentration 0.00152416 (second series)” value was determined as 0.8309. Further, in test [1], the “normalised signal at concentration 0.00457247 (first series)” value is on record as 0.8786, the “normalised signal at concentration 0.00457247 (second series)” value was determined as 0.8245, the “normalised signal at concentration 0.0137174 (first series)” value was 0.8282 and the “normalised signal at concentration 0.0137174 (second series)” value was 0.879. Also, in test [1], the “normalised signal at concentration 0.0411523 (first series)” value was found to be 0.9277, the “normalised signal at concentration 0.0411523 (second series)” value was found to be 0.9618, the “normalised signal at concentration 0.123457 (first series)” value was 0.8826 and the “normalised signal at concentration 0.123457 (second series)” value turned out to be 1.0267. In addition, in test [1], the “normalised signal at concentration 0.37037 (first series)” value came to 0.7577, the “normalised signal at concentration 0.37037 (second series)” value amounted to 1.11, the “normalised signal at concentration 1.11111 (first series)” value turned out to be 0.8863 and the “normalised signal at concentration 1.11111 (second series)” value is listed as 0.7661. In addition, in test [1], the “normalised signal at concentration 3.33333 (first series)” value amounted to 0.8204, the “normalised signal at concentration 3.33333 (second series)” value came out at 0.8055, the “normalised signal at concentration 10 (first series)” value came out at 0.8642 and the “normalised signal at concentration 10 (second series)” value stood at 0.7248. The IC50 in test [1] (setting [3]) is over 10 µM. In addition, the “PbLuc_max_inhibition (%)” value in test [1] (sheet "2nd round") is listed as 28%. Moreover, in test [2] (sheet "2nd round"), the IC50 was over 10 µM and the “Tox_max_inhibition (%)” value is reported as 2.77%.
Regarding `COc1ccc(NC(=O)N(C)C[C@H]2Oc3c(NC(=O)CCCCCC(=O)Nc4ccccc4N)cccc3C(=O)N([C@@H](C)CO)C[C@H]2C)cc1` [BRD-K03339938-001-01-9], in test [1], the “normalised signal at concentration 0.000508053 (first series)” value was found to be 1.103, the “normalised signal at concentration 0.000508053 (second series)” value is listed as 1.02, the “normalised signal at concentration 0.00152416 (first series)” value is on record as 0.9211 and the “normalised signal at concentration 0.00152416 (second series)” value came to 0.7891. In test [1], the “normalised signal at concentration 0.00457247 (first series)” value is given as 0.9975, the “normalised signal at concentration 0.00457247 (second series)” value came out at 0.8582, the “normalised signal at concentration 0.0137174 (first series)” value worked out at 0.9216 and the “normalised signal at concentration 0.0137174 (second series)” value amounted to 0.8637. Moreover, in test [1], the “normalised signal at concentration 0.0411523 (first series)” value amounted to 0.9804, the “normalised signal at concentration 0.0411523 (second series)” value was 0.9024, the “normalised signal at concentration 0.123457 (first series)” value is 0.8136 and the “normalised signal at concentration 0.123457 (second series)” value is 0.9499. For the same compound, in test [1], the “normalised signal at concentration 0.37037 (first series)” value turned out to be 0.9387, the “normalised signal at concentration 0.37037 (second series)” value was 1.008, the “normalised signal at concentration 1.11111 (first series)” value came out at 0.9514 and the “normalised signal at concentration 1.11111 (second series)” value worked out at 0.9972. Besides, in test [1], the “normalised signal at concentration 3.33333 (first series)” value was 1.011, the “normalised signal at concentration 3.33333 (second series)” value amounted to 1.0698, the “normalised signal at concentration 10 (first series)” value is recorded as 1.4773 and the “normalised signal at concentration 10 (second series)” value is recorded as 1.187. Also, in test [1] (setting [3]), the IC50 was over 10 µM. Besides, the “PbLuc_max_inhibition (%)” value in test [1] (sheet "2nd round") came out at 21%. In addition, in test [2] (sheet "2nd round"), the IC50 was over 10 µM and the “Tox_max_inhibition (%)” value is 4.46%.
On to `COc1ccc(CNC(=O)C[C@H]2CC[C@@H](NC(=O)CN(C)C)[C@H](CO)O2)cc1` [BRD-K05060234-001-01-0], for which, in test [1], the “normalised signal at concentration 0.000508053 (first series)” value is on record as 0.9876, the “normalised signal at concentration 0.000508053 (second series)” value stood at 0.95, the “normalised signal at concentration 0.00152416 (first series)” value is 0.9394 and the “normalised signal at concentration 0.00152416 (second series)” value was 1.006. In test [1], the “normalised signal at concentration 0.00457247 (first series)” value is listed as 1.108, the “normalised signal at concentration 0.00457247 (second series)” value is recorded as 1.09, the “normalised signal at concentration 0.0137174 (first series)” value worked out at 1.028 and the “normalised signal at concentration 0.0137174 (second series)” value is recorded as 1.083. In test [1], the “normalised signal at concentration 0.0411523 (first series)” value is given as 1.04, the “normalised signal at concentration 0.0411523 (second series)” value was 1.112, the “normalised signal at concentration 0.123457 (first series)” value worked out at 1.099 and the “normalised signal at concentration 0.123457 (second series)” value is recorded as 1.024. For the same compound, in test [1], the “normalised signal at concentration 0.37037 (first series)” value is 1.009, the “normalised signal at concentration 0.37037 (second series)” value came out at 0.9385, the “normalised signal at concentration 1.11111 (first series)” value was 1.251 and the “normalised signal at concentration 1.11111 (second series)” value is 1.0925. In test [1], the “normalised signal at concentration 3.33333 (first series)” value turned out to be 1.234, the “normalised signal at concentration 3.33333 (second series)” value was determined as 0.8448, the “normalised signal at concentration 10 (first series)” value is 0.9455 and the “normalised signal at concentration 10 (second series)” value worked out at 0.8679. Also, the IC50 in test [1] (setting [3]) was over 10 µM. Further, the “PbLuc_max_inhibition (%)” value in test [1] (sheet "2nd round") amounted to 16%. For the same compound, in test [2] (sheet "2nd round"), the IC50 was over 10 µM and the “Tox_max_inhibition (%)” value was found to be 11%.
With `C[C@H]1CN([C@@H](C)CO)C(=O)c2cccc(NC(=O)c3ccc(-c4nccs4)cc3)c2O[C@@H]1CN(C)C(=O)Nc1ccc(C(F)(F)F)cc1` [BRD-K03390828-001-01-5], the “PbLuc_max_inhibition (%)” value in test [1] (setting [4]) is on record as 34%. Besides, the “normalized signal at 0.000508053 (first series)” value in test [1] (concentration 0.000508053, first replicate series, fraction of control) came out at 0.9377. In addition, the “normalized signal at 0.000508053 (second series)” value in test [1] (concentration 0.000508053, second replicate series, fraction of control) stood at 0.6684. For the same compound, in test [1] (concentration 0.00152416, first replicate series, fraction of control), the “normalized signal at 0.00152416 (first series)” value is 0.8855. Besides, the “normalized signal at 0.00152416 (second series)” value in test [1] (concentration 0.00152416, second replicate series, fraction of control) was 0.8915. For the same compound, the “normalized signal at 0.00457247 (first series)” value in test [1] (concentration 0.00457247, first replicate series, fraction of control) worked out at 0.8808. In addition, the “normalized signal at 0.00457247 (second series)” value in test [1] (concentration 0.00457247, second replicate series, fraction of control) is recorded as 0.7577. Also, the “normalized signal at 0.0137174 (first series)” value in test [1] (concentration 0.0137174, first replicate series, fraction of control) is 0.9989. Also, the “normalized signal at 0.0137174 (second series)” value in test [1] (concentration 0.0137174, second replicate series, fraction of control) is on record as 0.749. Also, the “normalized signal at 0.0411523 (first series)” value in test [1] (concentration 0.0411523, first replicate series, fraction of control) was found to be 0.8536. Further, the “normalized signal at 0.0411523 (second series)” value in test [1] (concentration 0.0411523, second replicate series, fraction of control) was determined as 0.9352. Further, the “normalized signal at 0.123457 (first series)” value in test [1] (concentration 0.123457, first replicate series, fraction of control) is reported as 0.9414. In addition, in test [1] (concentration 0.123457, second replicate series, fraction of control), the “normalized signal at 0.123457 (second series)” value is recorded as 0.925. Moreover, the “normalized signal at 0.37037 (first series)” value in test [1] (concentration 0.37037, first replicate series, fraction of control) is 0.9548. For the same compound, in test [1] (concentration 0.37037, second replicate series, fraction of control), the “normalized signal at 0.37037 (second series)” value is on record as 0.6557. Moreover, the “normalized signal at 1.11111 (first series)” value in test [1] (concentration 1.11111, first replicate series, fraction of control) worked out at 1.032. Besides, the “normalized signal at 1.11111 (second series)” value in test [1] (concentration 1.11111, second replicate series, fraction of control) worked out at 0.7805. For the same compound, the “normalized signal at 3.33333 (first series)” value in test [1] (concentration 3.33333, first replicate series, fraction of control) is 1.162. Further, the “normalized signal at 3.33333 (second series)” value in test [1] (concentration 3.33333, second replicate series, fraction of control) amounted to 0.8715. Besides, the “normalized signal at 10 (first series)” value in test [1] (concentration 10, first replicate series, fraction of control) is 0.7935. Besides, in test [1] (concentration 10, second replicate series, fraction of control), the “normalized signal at 10 (second series)” value is given as 0.8747. The IC50 was over 10 µM in test [1] (2nd round, Broad DOS compounds, unit not printed (dose series head 10 to 0.000508053)) and over 10 µM in test [2] (2nd round, unit inferred). In test [2] (setting [4]), the “Tox_max_inhibition (%)” value was 6.57%.
